# Data from US12460243B2, “Mass spectrometry determination of the sensitivity or resistance of bacteria to an antibiotic” (priority 2019, dated 2025).
# Bridge positions count the residues as written; N and C are the ends. Square brackets hold non-standard residues; d marks the D form. Peptide text beside a SMILES is read from it. * marks the point of attachment. Heptanoyl(6-Me) = CC(C)CCCCC(=O)*; Dab = NCC[C@H](N)C(=O)O
# Tested on: Klebsiella pneumoniae
# Experiment: MALDI-TOF detection of released characteristic proteins, 10 min at 50° C., filtration (examples V, VI)
# Assay type: cell-based
# Settings: for Aire sous la courbe des pics observés, Protéine ribosomique 50S L29 / Aire sous la courbe des pics observés, Protéine ribosomique 50S L31 / Aire sous la courbe des pics observés, Protéine ribosomique 50S L34 / Aire sous la courbe des pics observés, US9 / Ratio par protéine 6290/Colistine / Ratio par protéine 8308/Colistine / Ratio par protéine CsbD/Colistine / Ratio par protéine DNA BP H-NS/Colistine / Ratio par protéine L29/Colistine / Ratio par protéine L31/Colistine / Ratio par protéine L34/Colistine / Ratio par protéine US9/Colistine / Somme des ratios / Aire sous la courbe des pics observés, 6290 / Aire sous la courbe des pics observés, 8308 / Aire sous la courbe des pics observés, CsbD domain-containing protein / Aire sous la courbe des pics observés, DNA binding protein H-NS / sensitivity or resistance to colistin by MALDI-TOF: colistin 2.5 mg/ml, 10 min 50° C.; for classification by sum of the ratios against threshold: threshold 0.45
# Experimental: The tests were carried out using the following steps: • preparing a suspension of microorganism at 2 McF in water (suspension medium, bioMérieux reference 70700), • preparing a solution of colistin sulfate (Sigma reference C4461) at a concentration of 2× in pure water (taking into account the colistin titer indicated by the manufacturer).
# The proteins characteristic of the species Klebsiella pneumoniae are the DNA binding protein H-NS, the ribosomal proteins L29, L31, L34 and US9, the cold shock protein containing a CsbD domain (CsbD domain-containing protein), and the uncharacterized proteins with m/z 6290 and 8308. These proteins are characterized respectively by the peaks at 7705 (DNA binding protein H-NS), 7274 (L29), 7743 (L31), 5381 (L34), 7384 (US9), 8309 (CsbD), more or less 1000 parts per million (ppm). For their part, the hypothetical proteins are characterized by peaks at 6290 and […], more or less 1000 parts per million (ppm).
# In the context of this example, the tests were carried out with the method of the present invention to determine the sensitivity or resistance of several bacteria of several strains such as in example V and comprising the following steps: • measuring the intensity of each peak observed, • finding a ratio between the sum of the intensities of the protein peaks of the microorganism and at least 1 peak of colistin. • determining the status, resistant or sensitive to colistin, as a function of the sum of the ratios obtained and of a threshold fixed for each species. • a resistant microorganism will have a low ratio and a sensitive microorganism will have a high ratio.
# The K. pneumoniae strains KP S10-1, KP S10-2, KP S15-1, KP S15-2, KP R9-1, KP R9-2, KP R16-1 and KP R16-2 are also studied and the proteins characteristic of the species K. pneumoniae are analyzed. These characteristic proteins are the DNA binding protein H-NS, the ribosomal proteins L29, L31, L34 and US9, the cold shock protein containing a CsbD domain (CsbD domain-containing protein), and the uncharacterized proteins with m/z 6290 and 8308.
compound,measurement,setting,value
CC(C)CCCCC(=O)N[C@@H](CCN)C(=O)N[C@H](C(=O)N[C@@H](CCN)C(=O)N[C@H]1CCNC(=O)[C@H]([C@@H](C)O)NC(=O)[C@H](CCN)NC(=O)[C@H](CCN)NC(=O)[C@H](CC(C)C)NC(=O)[C@@H](CC(C)C)NC(=O)[C@H](CCN)NC1=O)[C@@H](C)O [colistin] ({Heptanoyl(6-Me)}-[Dab]T[Dab][Dab][Dab][dL]L[Dab][Dab]T; lactam 4-C),"Aire sous la courbe des pics observés, Protéine ribosomique 50S L29",strain KP S10-1,474 unité arbitraire
same,"Aire sous la courbe des pics observés, Protéine ribosomique 50S L31",strain KP S10-1,321 unité arbitraire
same,"Aire sous la courbe des pics observés, Protéine ribosomique 50S L34",strain KP S10-1,0 unité arbitraire
same,"Aire sous la courbe des pics observés, US9",strain KP S10-1,297 unité arbitraire
same,Ratio par protéine 6290/Colistine,strain KP S10-1,0.55
same,Ratio par protéine 8308/Colistine,strain KP S10-1,0.14
same,Ratio par protéine CsbD/Colistine,strain KP S10-1,0.00
same,Ratio par protéine DNA BP H-NS/Colistine,strain KP S10-1,0.25
same,Ratio par protéine L29/Colistine,strain KP S10-1,0.31
same,Ratio par protéine L31/Colistine,strain KP S10-1,0.21
same,Ratio par protéine L34/Colistine,strain KP S10-1,0.00
same,Ratio par protéine US9/Colistine,strain KP S10-1,0.20
same,Somme des ratios,strain KP S10-1,1.66
same,"Aire sous la courbe des pics observés, 6290",strain KP S10-2,146 unité arbitraire
same,"Aire sous la courbe des pics observés, 8308",strain KP S10-2,54 unité arbitraire
same,"Aire sous la courbe des pics observés, CsbD domain-containing protein",strain KP S10-2,0 unité arbitraire
same,"Aire sous la courbe des pics observés, DNA binding protein H-NS",strain KP S10-2,119 unité arbitraire
same,"Aire sous la courbe des pics observés, Protéine ribosomique 50S L29",strain KP S10-2,124 unité arbitraire
same,"Aire sous la courbe des pics observés, Protéine ribosomique 50S L31",strain KP S10-2,76 unité arbitraire
same,"Aire sous la courbe des pics observés, Protéine ribosomique 50S L34",strain KP S10-2,134 unité arbitraire
same,"Aire sous la courbe des pics observés, US9",strain KP S10-2,77 unité arbitraire
same,Ratio par protéine 6290/Colistine,strain KP S10-2,0.17
same,Ratio par protéine 8308/Colistine,strain KP S10-2,0.06
same,Ratio par protéine CsbD/Colistine,strain KP S10-2,0.00
same,Ratio par protéine DNA BP H-NS/Colistine,strain KP S10-2,0.14
same,Ratio par protéine L29/Colistine,strain KP S10-2,0.15
same,Ratio par protéine L31/Colistine,strain KP S10-2,0.09
same,Ratio par protéine L34/Colistine,strain KP S10-2,0.16
same,Ratio par protéine US9/Colistine,strain KP S10-2,0.09
same,Somme des ratios,strain KP S10-2,0.86
same,"Aire sous la courbe des pics observés, 6290",strain KP S15-1,215 unité arbitraire
same,"Aire sous la courbe des pics observés, 8308",strain KP S15-1,0 unité arbitraire
same,"Aire sous la courbe des pics observés, CsbD domain-containing protein",strain KP S15-1,248 unité arbitraire
same,"Aire sous la courbe des pics observés, DNA binding protein H-NS",strain KP S15-1,0 unité arbitraire
same,"Aire sous la courbe des pics observés, Protéine ribosomique 50S L29",strain KP S15-1,0 unité arbitraire
same,"Aire sous la courbe des pics observés, Protéine ribosomique 50S L31",strain KP S15-1,0 unité arbitraire
same,"Aire sous la courbe des pics observés, Protéine ribosomique 50S L34",strain KP S15-1,0 unité arbitraire
same,"Aire sous la courbe des pics observés, US9",strain KP S15-1,150 unité arbitraire
same,Ratio par protéine 6290/Colistine,strain KP S15-1,0.24
same,Ratio par protéine 8308/Colistine,strain KP S15-1,0.00
same,Ratio par protéine CsbD/Colistine,strain KP S15-1,0.28
same,Ratio par protéine DNA BP H-NS/Colistine,strain KP S15-1,0.00
same,Ratio par protéine L29/Colistine,strain KP S15-1,0.00
same,Ratio par protéine L31/Colistine,strain KP S15-1,0.00
same,Ratio par protéine L34/Colistine,strain KP S15-1,0.00
same,Ratio par protéine US9/Colistine,strain KP S15-1,0.17
same,Somme des ratios,strain KP S15-1,0.68
same,"Aire sous la courbe des pics observés, 6290",strain KP S15-2,141 unité arbitraire
same,"Aire sous la courbe des pics observés, 8308",strain KP S15-2,0 unité arbitraire
same,"Aire sous la courbe des pics observés, CsbD domain-containing protein",strain KP S15-2,237 unité arbitraire
same,"Aire sous la courbe des pics observés, DNA binding protein H-NS",strain KP S15-2,0 unité arbitraire
same,"Aire sous la courbe des pics observés, Protéine ribosomique 50S L29",strain KP S15-2,0 unité arbitraire
same,"Aire sous la courbe des pics observés, Protéine ribosomique 50S L31",strain KP S15-2,0 unité arbitraire
same,"Aire sous la courbe des pics observés, Protéine ribosomique 50S L34",strain KP S15-2,0 unité arbitraire
same,"Aire sous la courbe des pics observés, US9",strain KP S15-2,92 unité arbitraire
same,Ratio par protéine 6290/Colistine,strain KP S15-2,0.14
same,Ratio par protéine 8308/Colistine,strain KP S15-2,0.00
same,Ratio par protéine CsbD/Colistine,strain KP S15-2,0.23
same,Ratio par protéine DNA BP H-NS/Colistine,strain KP S15-2,0.00
same,Ratio par protéine L29/Colistine,strain KP S15-2,0.00
same,Ratio par protéine L31/Colistine,strain KP S15-2,0.00
same,Ratio par protéine L34/Colistine,strain KP S15-2,0.00
same,Ratio par protéine US9/Colistine,strain KP S15-2,0.088
same,Somme des ratios,strain KP S15-2,0.45
same,classification by sum of the ratios against threshold,strain KP-R9,resistant (the strains whose sum of the ratios is strictly below 0.45 will be considered as resistant)
same,classification by sum of the ratios against threshold,strain KP-R16,resistant (the strains whose sum of the ratios is strictly below 0.45 will be considered as resistant)
same,classification by sum of the ratios against threshold,strain KP-S10,sensitive (the strains whose sum of the ratios is greater than or equal to 0.45 will be considered as sensitive)
same,classification by sum of the ratios against threshold,strain KP-S15,sensitive (the strains whose sum of the ratios is greater than or equal to 0.45 will be considered as sensitive)
same,sensitivity or resistance to colistin by MALDI-TOF,strain KP_R9,resistant
same,sensitivity or resistance to colistin by MALDI-TOF,strain KP_R16,resistant
same,sensitivity or resistance to colistin by MALDI-TOF,strain KP_S10,sensitive
same,sensitivity or resistance to colistin by MALDI-TOF,strain KP_S15,sensitive
